Data: PMC8400635, “A Bidirectional Permeability Assay for beyond Rule of 5 Compounds” (Pharmaceutics, 2021)

Tests used:
[1] = tested on: P-gp; assay: Modified bidirectional permeability assay (24 h preincubation), Caco-2 cells; conditions: human, Caco-2, pH 7.4, with zosuquidar 5 µM
[2] = tested on: Caco-2 cells; assay: as above; conditions: Caco-2, modified assay; 5 µM zosuquidar
[3] = as above; conditions: human, Caco-2, pH 7.4
[4] = Standard bidirectional permeability assay, Caco-2 cells; assay type: in vitro ADME; conditions: human; for Papp A→B at 10 µM: read-out: Caco-2 Papp,AB; for Papp B→A at 10 µM: read-out: Caco-2 PappBA
[5] = tested on: P-gp (MDR1); assay: Standard bidirectional permeability assay, MDCK-MDR1 cells; assay type: in vitro ADME, canine; conditions: dog, MDCK-MDR1, pH 7.4, 10 µM in donor; for Papp A→B at 10 µM: read-out: MDCK-MDR1 Papp,AB
[6] = as above; assay type: in vitro ADME, canine; conditions: dog, MDCK-MDR1, pH 7.4, 10 µM in donor, read-out: MDCK-MDR1 PappBA
[7] = pH 7.4, Caco-2, standard conditions
[8] = Caco-2, pH 7.4, standard assay, 10 µM in donor

Row | SMILES | Papp A→B at 1 µM [1] [×10⁻⁶ cm/s] | inhibition of efflux by zosuquidar (P-gp substrate) [2] | Papp A→B at 1 µM [3] [×10⁻⁶ cm/s] | efflux ratio at 1 µM [3] | Papp ([4]; pH 7.4, Caco-2, standard assay, read-out: intrinsic permeability) [×10⁻⁶ cm/s] | Papp A→B [4, 7] [×10⁻⁶ cm/s] | efflux ratio [4, 7] | Papp A→B at 10 µM [4, 8] [×10⁻⁶ cm/s] | Papp B→A at 10 µM [4, 8] [×10⁻⁶ cm/s] | efflux ratio at 10 µM [5] | Papp A→B at 10 µM [5] [×10⁻⁶ cm/s] | Papp B→A at 10 µM [6] [×10⁻⁶ cm/s] | efflux ratio at 10 µM [4, 8]
1 | Cc1nnc2n1-c1sc(CCC(=O)N3CCOCC3)cc1C(c1ccccc1Cl)=NC2 [Apafant, apafant] | 13 | inhibited completely | 2.6 | 13.8 | 14 | 2.3 | 15.9 | – | – | – | – | – | –
2 | COCCc1ccc(OCC(O)CNC(C)C)cc1 (stereo not drawn) [Metoprolol] | – | – | – | – | – | – | – | 54.3 | 41 | 1 | 67.7 | 68.5 | –
3 | CC(C)NCC(O)COc1cccc2ccccc12 (stereo not drawn) [Propranolol] | – | – | – | – | – | – | – | 79 | 69.5 | 0.8 | 38.4 | 32.6 | 1.1
